How the values were obtained:
[1] = target: T1, ferritin and VHL (Mus musculus, UniProt P09528+P29391+P40338); assay: Co-immunoprecipitation of ferritin with anti-VHL antibody (ternary complex formation); format: cell-based, murine; settings: B16F10 cells, 5 μM, 2 h
T1 construct: endogenous in cells; host or cells: B16F10 (murine melanoma)
Procedure: Co-Immunoprecipitation assay: B16F10 cells were seeded in T75 cell culture flasks (2×10^6 cells per well) and cultured for 24 h. […] After incubation for 2 h, cells were washed with cold PBS and lysed on ice with IP lysis buffer (50 mM Tris-HCl, pH 7.4; 150 mM NaCl; 2 mM EDTA; 1% NP-40) containing phenylmethylsulfonyl fluoride (PMSF, 1 mM) and the phosphatase inhibitor cocktail for 30 min. The lysates were collected and centrifuged at 10,000 g for 10 minutes at 4° C. On the one hand, 10 μL of lysate supernatants were saved as the input samples. On the other hand, 25 μL of magnetic beads was added to each supernatant in microcentrifuge tubes, and the resulting mixtures were incubated at 4° C. with gentle rotation for 30 min. Next, the sample-containing tube was placed on a magnetic rack for 1 minute, and the supernatant was transferred into a new microcentrifuge tube placed on ice, serving as the precleared samples. The total proteins in the precleared samples were quantified through the BCA assay. Each precleared lysate was added an appropriate amount of mouse monoclonal IgG1 κ anti-VHL antibody (sc-135657, Santa Cruz Biotechnology) and then incubated at 4° C. for 2 hours with gentle rotation. After that, the pre-washed magnetic bead (equal to 25 μL of magnetic beads) was added to each sample. The resulting mixtures were incubated at room temperature for 1 h with gentle rotation. […]

[2] = target: T2, apoferritin from equine spleen (Equus caballus, UniProt P02791); assay: Isothermal titration calorimetry (ITC) binding to ferritin
T2 construct: the apoferritin from equine spleen (A3660, Sigma-Aldrich) that is not combined with iron was used; purchased Sigma-Aldrich A3660; host or cells: equine spleen (tissue-derived)
T2 sequence (P02791 2-175 limits assumed): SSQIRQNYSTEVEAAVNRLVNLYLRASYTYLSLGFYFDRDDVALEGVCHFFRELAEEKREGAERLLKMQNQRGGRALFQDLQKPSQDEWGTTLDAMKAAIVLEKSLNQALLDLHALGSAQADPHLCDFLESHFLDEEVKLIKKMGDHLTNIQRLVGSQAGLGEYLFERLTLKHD
Procedure: As for the ferritin proteins, the apoferritin from equine spleen (A3660, Sigma-Aldrich) that is not combined with iron was used. Before the ITC test, 1 mL of apoferritin in glycerol solution (50% glycerol and 0.075 M NaCl) was placed in a dialysis bag with a molecular weight cut-off of 3 kDa. The dialysis bags were then immersed in the prepared solution (20 mM Tris-HCl, pH 8.5, and 130 mM NaCl) and stirred at room temperature. The dialysis buffer was changed every 24 h for three times, and the last buffer was collected and 0.05% DMSO was added to serve as the ITC buffer. As for the oleic acid, 12 μM apoferritin in the ITC buffer was placed in the ITC cell, and the syringe was full of 250 μM oleic acid in the same ITC buffer. Besides the first injection with 5 μL of the oleic acid solution, 18 aliquots with 10 μL of the oleic acid solution were titrated into the apoferritin solution with a time interval of 300 s. […] Besides the first injection with 1 μL of the apoferritin solution, 25 aliquots were titrated with a time interval of 300 s. Raw data were corrected for control titrations (the solution in the syringe into the blank ITC buffer in the cell) and integrated using Origin 7.0 (MicroCal). Binding kinetics parameters, including N, Kd, ΔH, and ΔS, were calculated using a single-class binding site model.

[3] = system: B16F10 cells; assay: Morphology observation (pyroptosis); format: cell-based, murine; settings: 5 μM, 24 h
Procedure: Morphology observation: 5×10^4 B16F10 cells were seeded in confocal dishes and cultured for 24 h at 37° C. […] After incubation for 24 h, the cells were washed with PBS and subjected to a Nikon Eclipse Ti Intensilight fluorescence microscope in a phase contrast mode for observation.

[4] = Solubility in the ITC buffer; format: physicochemical; settings: 20 mM Tris-HCl pH 8.5, 130 mM NaCl, 0.05% DMSO
[5] = system: GSDME-N; assay: Western blot of cleaved N-terminal GSDME (GSDME-N) in B16F10 cells; format: cell-based, murine; settings: 20 h
Procedure: (§1) As for the determination of cleaved-GSDME and cleaved-caspase-3, B16F10 cells were seeded in 6-well culture plates (2×10^5 cells per well) and cultured for 24 h. Then the medium in the corresponding wells except the negative control was replaced with 1 mL of medium containing ferritin degraders, albumin nanoparticles, or the degrader with inhibitors at the indicated concentrations. Incubation for another 6 or 8 h was used to test the cleaved-caspase-3, while treatment for another 16 or 20 h was used to test cleaved-GSDME. The following procedures were the same as mentioned above.

[6] = system: B16F10 cells; assay: Determination of intracellular free iron content; format: cell-based, murine; settings: 5 μM, 8 h
Procedure: Determination of free iron content: Here, the focus was on detecting the intracellular free iron ions rather than protein-bound iron contents. The procedures for sample preparation were based on a previously reported method. B16F10 cells were seeded in T75 cell culture flasks (2×10^6 cells per well) and cultured for 24 h. […] After incubation for 8 h, cells were harvested and resuspended in 1 mL PBS. Besides, 800 μL of PBS cell suspension was subjected to centrifugation, and 780 μL of the supernatant was carefully removed. Afterward, 280 μL of ultrapure water was added to the cell precipitate. Following shaking at horizontal rotators for 12 h, the supernatant was transferred into 30 KDa ultrafiltration centrifuge tube after twice centrifugation at 2,000 g for 20 min. […] The lysates were centrifuged at 12,000 rpm for 10 min at 4° C., followed by quantification of the total proteins in the supernatant through the BCA assay.
As for iron content determination, 200 μL of the abovementioned filtrates were collected and treated with 10 μL of hydrochloric acid solution (6 mol/L), 100 μL of acetic acid-sodium acetate buffer (pH=4.5), 10 μL of 10% aqueous hydroxylamine hydrochloride, and 100 μL of o-phenanthroline (1 mg/mL). […] The iron ion content could be calculated according to the standard curve. […]

[7] = system: cleaved caspase 3; assay: Western blot of cleaved caspase 3 in B16F10 cells; format: cell-based, murine; settings: 8 h
Procedure: as §1

T1 sequence (P09528 2-182 limits assumed): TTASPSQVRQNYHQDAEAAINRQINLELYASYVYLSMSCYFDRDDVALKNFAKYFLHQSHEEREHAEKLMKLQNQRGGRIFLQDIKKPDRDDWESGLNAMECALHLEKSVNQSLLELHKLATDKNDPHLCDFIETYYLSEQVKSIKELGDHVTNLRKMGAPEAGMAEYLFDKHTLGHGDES
T1 sequence (P29391 2-183 limits assumed): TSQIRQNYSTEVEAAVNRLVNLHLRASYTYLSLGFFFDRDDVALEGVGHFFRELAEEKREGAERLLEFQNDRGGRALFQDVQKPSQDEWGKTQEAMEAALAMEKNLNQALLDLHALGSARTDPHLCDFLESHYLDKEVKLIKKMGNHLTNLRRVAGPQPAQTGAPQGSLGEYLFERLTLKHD
T1 sequence (P40338 whole entry): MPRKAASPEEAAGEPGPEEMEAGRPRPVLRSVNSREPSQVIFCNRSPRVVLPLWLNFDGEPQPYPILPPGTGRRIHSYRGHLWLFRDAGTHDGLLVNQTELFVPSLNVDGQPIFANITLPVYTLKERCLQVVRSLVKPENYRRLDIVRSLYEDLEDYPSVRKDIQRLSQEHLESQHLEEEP
T1 sequence (P62869 whole entry partner): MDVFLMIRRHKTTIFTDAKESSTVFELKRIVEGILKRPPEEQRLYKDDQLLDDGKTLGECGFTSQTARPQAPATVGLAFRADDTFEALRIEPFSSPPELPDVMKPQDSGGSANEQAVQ
T1 sequence (P83940 whole entry partner): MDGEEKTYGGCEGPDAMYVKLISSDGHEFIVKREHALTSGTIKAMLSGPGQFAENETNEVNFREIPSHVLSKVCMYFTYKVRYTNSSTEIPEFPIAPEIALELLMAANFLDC

In the case of `CCCCCCCCC=CCCCCCCCC(=O)NCCCC(=O)NC(C(=O)N1CC(O)CC1C(=O)NCc1ccc(-c2scnc2C)cc1)C(C)(C)C` (stereo not shown) [DeFer-2], the “ferritin co-precipitated with VHL” value [1] is reported as “could induce ferritin co-precipitated with VHL”, the Kd [2] is reported as 17.1 ± 1.96 µM and the “morphology of dying cells” value [3] is reported as “obvious swelling and characteristic membrane blebbing”. For the same compound, the “solubility in the ITC buffer” value [4] was “relatively low solubility”, the “generation of GSDME-N” value [5] was “enhance the generation of GSDME-N” and the “intracellular free iron content” value [6] was “significant elevation”. For the same compound, the “level of cleaved caspase 3” value [7] was “increased the level of cleaved caspase 3 in a dose-dependent manner”.

— patent publication US20260273074A1, “FERRITIN-TARGETING PROTACS AND METHODS OF INDUCING PYROPTOSIS” (Wisconsin Alumni Research Foundation, priority 2023, published 2026)
